Reference: article PMC11063903, “Engineering a human P2X2 receptor with altered ligand selectivity in yeast” (The Journal of Biological Chemistry, 2024)
Positions count from the first letter of the chain named.

Columns and labels:
P2X2 F303Y+A304W = biological target: T1, P2X2 F303Y+A304W (Homo sapiens, UniProt Q9UBL9, A304W/F303Y); experiment: Fast GCaMP-mScarletI assay in yeast, P2X2 F303Y+A304W; format: cell-based; conditions: for Bottom, best fit value / Hillslope, best fit value / Top, best fit value: four-parameter logistic fit of ΔF/ΔT
T1 construct: expressed in transfected cells; host or cells: S. cerevisiae BY4741 background
T1 sequence (Q9UBL9 1-471 F303Y/A304W): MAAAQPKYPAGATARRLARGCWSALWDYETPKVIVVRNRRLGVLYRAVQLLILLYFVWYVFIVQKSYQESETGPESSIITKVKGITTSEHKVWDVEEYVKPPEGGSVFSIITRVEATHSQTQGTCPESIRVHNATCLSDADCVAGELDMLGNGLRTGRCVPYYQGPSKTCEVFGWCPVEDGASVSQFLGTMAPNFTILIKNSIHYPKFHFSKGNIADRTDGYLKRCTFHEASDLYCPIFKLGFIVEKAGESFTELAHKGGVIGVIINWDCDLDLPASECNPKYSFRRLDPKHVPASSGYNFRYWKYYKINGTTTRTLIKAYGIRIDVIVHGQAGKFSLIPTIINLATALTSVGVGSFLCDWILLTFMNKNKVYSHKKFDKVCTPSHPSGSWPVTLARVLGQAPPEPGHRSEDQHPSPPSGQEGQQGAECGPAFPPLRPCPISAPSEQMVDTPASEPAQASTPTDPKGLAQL
Experimental: (§1) Figure 4 Unnatural-ligand gating in LBD libraries.A, WT P2X2 was tested with 1 mM ATP, 500 μM AMP-PNP, and compared to ATP with the broken receptor (K81C K83C) control with 1 mM ATP in the fast GCaMP-mScarletI assay (n = 3). […] B, heat map summarizing AMP-PNP signaling (ΔF/ΔT, fast GCaMP-mScarletI assay) in the site-saturation libraries (n = 2–3). All values are normalized to WT P2X2 with saturating amounts of AMP-PNP (500 μM) and therefore represent low signal (ΔF/ΔT) compared to the ATP ligand. C, F301W, F303Y, and A304W were combinatorially combined and tested against the WT, K81C K83C broken P2X2, and the single mutant clones with both ATP (1 mM, black) and AMP-PNP (500 μM, pink). […] Values here represent signal onset and are not normalized to a positive control (n = 2–5). D–K, dose response of each P2X variant with both ATP (black) and AMP-PNP (pink) in the fast GCaMP-mScarletI assay (n = 3). Statistics were performed via one-way ANOVA with Dunnett’s multiple comparisons with to the “broken” K81C K83C negative control. ∗ represents a p value ≤0.05, ∗∗ is p ≤ 0.01, and ∗∗∗ is p ≤ 0.001.
(§2) The combined mutations were synergistic, with F303Y + A304W having a predicted additive effect of ca. Ten-fold, relative to the 73-fold seen.
(§3) GCaMP assays were performed as follows. P2X2 GCaMP strains were designed with a bi-cistronic reporter, in which the GCaMP protein was followed by a 2A peptide and a mScarletI reporter ([53]). The co-translated mScarletI was designed to act as a control for plasmid loss, GCaMP breakage via nonsense mutation, and contamination. […] P2X2-GCaMP strains were cultured and induced as previously described. Samples were induced for 24 h to allow for the accumulation of the mature GCaMP protein. Cells were washed three times in 0.1 M MES/Tris buffer and resuspended with MES/Tris with supplemental calcium. Cells were loaded onto a black, clear bottom microplate and imaged on a FlexStation3 plate reader. Samples were imaged in “flex” mode. Samples were imaged for 48 s at an interval of 1.6 s. Fluorescence was measured with an excitation at 485 nm, and emission 525 nm. At the 21 s mark, 100 μl ligand solution was transferred to the cells. For strains with mScarlet, fluorescence was read with excitation 570 nm/emission 610 nm. Slopes were calculated from the last 6 points of measurement and were normalized to the positive control samples. Any replicate in which the mScarlet value was measured to be over 2 standard deviations less than the mean for that set was discarded from further analysis.
(§4) For multiple comparisons in the site-saturation screening data, One-way ANOVA with Dunnett’s multiple comparisons test was performed where every sample was compared to the “broken” negative control. Significance was plotted where ∗ represents a p value ≤0.05, ∗∗ is p ≤0.01, and ∗∗∗ is p ≤0.001. Dose–response curves were fit with nonlinear regression software using a four-parameter logistic curve. All statistics were calculated and plotted in Graphpad Prism software.

P2X2 F301W+F303Y+A304W = biological target: T2, P2X2 F301W+F303Y+A304W (Homo sapiens, UniProt Q9UBL9, A304W/F301W/F303Y); experiment: Fast GCaMP-mScarletI assay in yeast, P2X2 F301W+F303Y+A304W; format: cell-based; conditions: for Bottom, best fit value / Hillslope, best fit value / Top, best fit value: four-parameter logistic fit of ΔF/ΔT
T2 construct: expressed in transfected cells; host or cells: S. cerevisiae BY4741 background
T2 sequence (Q9UBL9 1-471 F301W/F303Y/A304W): T1 sequence (Q9UBL9 1-471 F303Y/A304W) with F301W
Experimental: as §1, §2, §3, §4

[1] = four-parameter logistic fit, n = 3, unit inferred, unit M, read-out: EC50, best fit value

SMILES	increased intracellular calcium amplitudes compared to the WT receptor (P2X2 F303Y+A304W; AMP-PNP, abstract)	increased signal compared to the WT channel (rate of signal onset ΔF/ΔT) (P2X2 F303Y+A304W; at 500 μM AMP-PNP)	Bottom, best fit value (P2X2 F303Y+A304W; n = 3)	Hillslope, best fit value (P2X2 F303Y+A304W; n = 3)	Top, best fit value (P2X2 F303Y+A304W; n = 3)	improvement compared to the WT channel (rate of signal onset ΔF/ΔT) (P2X2 F301W+F303Y+A304W; at 500 μM AMP-PNP)	Bottom, best fit value (P2X2 F301W+F303Y+A304W; n = 3)	Hillslope, best fit value (P2X2 F301W+F303Y+A304W; n = 3)	Top, best fit value (P2X2 F301W+F303Y+A304W; n = 3)	EC50 (P2X2 F303Y+A304W; [1])	EC50 (P2X2 F301W+F303Y+A304W; [1])
Nc1ncnc2c1ncn2[C@@H]1O[C@H](COP(=O)(O)OP(=O)(O)NP(=O)(O)O)[C@@H](O)[C@H]1O [AMP-PNP]	over 100 fold	73 fold	1.254	2.515	114.4	24 fold	-0.1127	1.945	97.49	–	–
Nc1ncnc2c1ncn2[C@@H]1O[C@H](COP(=O)(O)OP(=O)(O)OP(=O)(O)O)[C@@H](O)[C@H]1O [ATP]	–	–	1.98	3.50	150.00	–	0.79	2.37	148.40	6.67 µM	8.88 µM
